In patent publication US11878012B2, “Compositions and methods for treating traumatic brain injury” (Board of Regents, the University of Texas System, priority 2020, dated 2024):

Columns and labels:
DGGCs [1] = test: Patch-clamp / current-clamp recordings of DGGCs in hippocampal slices (action potentials, AHP, IM amplitude); type: cell-based, mice
Method: (§1) Hippocampal Slice Preparation. […] Hippocampal slices were maintained in oxygenated ACSF at 30° C. for 60 min and experiments were performed at 25° C.

DGGCs [2] = test: Ca2+ imaging with calcium green-1 in DGGCs of hippocampal slices, whole-cell mode; type: cell-based, mice; conditions: for peak calcium green-1 fluorescence increase: M1R stimulation
Method: as §1
Ca2^+ Imaging. Concurrent with patch-clamp electrophysiology, neurons in slices were also imaged (Nikon FN-1, 40× water-immersion objective) via the fluorescent Ca^2+-reporter dye calcium green-1. As a hexapotassium salt, the dye (10 μm) was added to the intracellular patch pipette solution and neurons were patched under whole-cell clamp, as described above. Cells were loaded for 10 min before image acquisition. Fluorescence intensity was obtained using a SOLA Light Engine illumination source (Lumencor) with an output of 3.5 W through a 3-mm-diameter liquid light guide through a Nikon ET-GFP filter. Nikon Elements software was used for image acquisition through a QIClick CCD camera (QImaging). Images were acquired with an exposure time of 200 ms every 2 min using a single-channel, 12-bit rate and no binning. The shutter was closed between each acquisition. For each cell, the corrected total cell fluorescence was measured as the integrated density intensity—(cell area*mean background emission). Ca^2+ signals were measured as the change in fluorescence relative to the baseline fluorescence (ΔF/F0). Averages of four images were thresholded at 10%, masked using a highly averaged image of the cell, and encoded with a pseudocolor look-up table. Group cell fluorescence data were averaged in comparison with normalized intensity at each time point.

DGGCs [3] = test: GCaMP6f brain slice Ca2+ imaging of DGGCs after sham or CCI-TBI; type: cell-based, mice; conditions: for Ca2+ influx events per neuron: 0.3 mM ACh 5 min; for duration of Ca2+ influx / peak amplitude of Ca2+ influx: ACh
Source text: Neuromodulation of TRPC generates robust Ca2+ influx and facilitates neuronal hyperexcitability. […] To assess the post-injury effect of TRPC channel upregulation on neurons, we used Ca2+ imaging in brain slice to measure excitability as a product of intracellular Ca2+ gating by TRPC1/4/5 channels (FIG. 4). […] Transgenic mice with the GCaMP6f transgene were used to detect changes in cellular Ca2+-activated fluorescence. We hypothesized that DGGC activity increases due to muscarinic stimulation with ACh or direct activation of TRPC4-containing channels with EA. Sensitivity was tested by bath perfusion of ACh or EA to the slice for 5 minutes during Ca2+ imaging to quantify peak amplitude of GCaMP6f fluorescence per cell, duration of Ca2+ influx, and the field-frequency of events (FIG. 4).
Brain slice Ca2+ imaging. Transverse slices (300 μm) of hippocampus were cut with a vibratome (Thermo Scientific Microm HM650V) from Cre-CamK2+/GCamp6f+/− mice. […] Hippocampal slices were maintained in oxygenated ACSF at 30° C. for 60 min, and experiments performed at 28° C. […] Neurons were visually identified with a Nikon FN-1 microscope equipped with a 40× water-immersion objective and infrared differential interference contrast. GCaMP6f fluorescence was obtained using a SOLA Light Engine Illumination source (Lumecor) with an output of 3.5W through a 3 mm diameter liquid light guide through a Nikon ET-GFP filter. Nikon Elements software was used for image acquisition through a QIClick CCD camera (Qlmaging) with a Uniblitz Model VMM-D 1 shutter driver. Baseline time series of the DG granule layer were acquired in the presence of bath solution perfusion for 2 min. […] Images were acquired in time series with an exposure time of 200 ms at 2-10 fps at 12-bit rate and no binning. Time-series image stacks were processed with ImageJ. Images were background subtracted using the mean of the 5% lowest pixel values. Ca2+ signal events were quantified for each cell as change in fluorescence divided by the baseline fluorescence (ΔF/FO) after background subtraction. ROI signals were detrended before quantification to account for drift due to gradual photobleaching of the background.

TRPC4/5 channels = conditions: description from literature; cited from earlier work
other TRPC channels = conditions: description; cited from earlier work
seizure susceptibility [4] = test: Single subconvulsant PTZ challenge 7 days after CCI-TBI; type: in vivo, mice; conditions: PTZ 50 mg/kg single dose 7 days after TBI, n=14
Source text: TBI facilitates TRPC-dependent seizure susceptibility.
Controlled cortical impact traumatic brain injury. […] Apnea episodes lasted between 10-60 sec after impact.
Seizure susceptibility assays. Pentylenetetrazol kindling model.

seizure susceptibility [5] = test: PTZ kindling after sham or CCI-TBI
Method: The fact that only a portion of TBI cases become susceptible to epileptic seizures is a yet unanswered phenomenon in both preclinical and clinical studies. Therefore, we investigated seizure susceptibility within the CCI-TBI model to gain a greater understanding as to the etiology of hyperexcitability spread occurring post-injury. […] In our seizure susceptibility paradigm, 1 or 7 days after experimental procedure, mice were challenged with a subconvulsant dose of PTZ (35 mg/kg s.c.) once-daily to elicit kindling epileptogenesis (FIG. 6A). The progression of motor seizure behavior was observed and timed by direct observation linked to EEG activity (FIG. 6B).
We wished to understand if the TRPC channel upregulation after TBI could be targeted to impede epileptogenic activity. […] Seizure susceptibility was standardized according to the latency to forelimb clonus lasting greater than 5 sec.
Controlled cortical impact traumatic brain injury. The controlled cortical impact (CCI) traumatic brain injury (TBI) model was applied, with a closed skull impact approach. The CCI model causes TBI, but the skull remains intact with minimal hematoma. This type of brain injury model most closely simulates the TBI experienced during blunt-head injuries from vehicular accidents or falls. Mice were anesthetized with isoflurane (3% induction, 1% maintenance) in 100% O2. Body temperature of 37° C. was maintained using a temperature-controlled heated surgical table. The skull was fixed with ear-bars into a stereotaxic frame. A small midline incision was made on the scalp using aseptic surgical techniques. Impact was delivered by cylindrical probe of 5 mm diameter with an Impact One neurotrauma impactor (Leica Biosystems). A calibrated impact was delivered at 4.5 m/sec to a depth of 1 mm and 0.5 sec dwell time to the right parietal cortex (−1.8 mm ML, +2.0 mm AP, −1.0 mm DV). […] The scalp was then sutured closed and mice were placed in a warming recirculation unit and monitored until fully awake and moving freely. […] For consistency, the left hemisphere of both sham and TBI mice is designated as “contralateral” brain, and the right hemisphere is referred to as “ipsilateral”, despite no impact injury occurring in sham mice.
In vivo electroencephalograms. To determine seizure frequency and record brain susceptibility to seizures, mice were implanted with electroencephalogram (EEG) electrodes 24 hr after sham or TBI. A three-channel tethered EEG system was used. The electrode pedestal (P1 Technologies) was secured to the skull with three anchored dental screws and connected to a preamplifier with gain of 25. The three leads were inserted over the left frontal cortex, left parietal cortex, and depth electrode lead into the hippocampus. The Stellate Harmonie acquisition hardware and software were used to collect coincident video and EEG activity. EEGs were inspected for presence of epileptiform spikes and seizures.
Seizure susceptibility assays. Pentylenetetrazol kindling model. Seizure susceptibility was tested with the GABAA receptor antagonist pentylenetetrazol (PTZ) for progression of motor seizure activity. Mice were injected with PTZ (35 mg/kg, s.c.) once per day and scored for motor behavioral seizures.

TRPC1/4/5 channels = conditions: Rubaiy et al., 2017; cited from earlier work
[6] = TRPC4/5 channels blocked, control or plus 77-LH-28-1 3 μM
[7] = PTZ daily from 1 day post-TBI, TBI
[8] = PTZ daily from 1 day post-procedure, sham
[9] = PTZ daily from 7 days after TBI, TBI
[10] = PTZ daily from 7 days after procedure, sham
[11] = IP3 receptor blockade, xestospongin C 10 μm

For `CCCCC1CCN(CCCN2C(=O)CCc3ccccc32)CC1` [77-LH-28-1], the “enhancement of IM amplitude” value (DGGCs [1]; 77-LH-28-1 3 μm with TRPC4/5 channels blocked) was 1.83 ±0.14 fold, the “action potential firing rate” value (DGGCs [1]; 77-LH-28-1 3 μm, no TRPC4/5 blocker) was “significantly increased” and the “enhancement of IM amplitude” value (DGGCs [1]; M1R stimulation in the absence of TRPC4/5 channel blockers) was 1.92±0.10 fold. For the same compound, the action potential threshold (DGGCs [1]; M084 10 μm + 77-LH-28-1 3 μm, n=8 cells) was −46.1±1.5 mV, the AHP amplitude (DGGCs [1]; [6]) was 13.6 ± 0.9 mV and the AHP area (DGGCs [1]; [6]) was 264.8 ± 21.5 ms* mV. The AHP decay (DGGCs [1]; [6]) was 17.1 ± 0.8 ms, the “peak calcium green-1 fluorescence increase” value (DGGCs [2]; 77-LH-28-1 3 μm) was 2.91±0.41 fold and the “peak calcium green-1 fluorescence increase” value (DGGCs [2]; 77-LH-28-1 10 μm) was 4.27±0.95 fold.

With `CC(=O)OCC[N+](C)(C)C` [ACh, acetylcholine] the “Ca2+ influx events per neuron” value (DGGCs [3]; contralateral TBI) was 2.6±0.2 events/neuron, the “Ca2+ influx events per neuron” value (DGGCs [3]; ipsilateral TBI) was 4.3±0.2 events/neuron and the “Ca2+ influx events per neuron” value (DGGCs [3]; sham control tissue) was 1.8±0.3 events/neuron. The “duration of Ca2+ influx” value (DGGCs [3]; contralateral DGGCs) was 6.12 ± 0.19 s, the “peak amplitude of Ca2+ influx” value (DGGCs [3]; contralateral DGGCs) was 1.70±0.12 ΔF/F and the “duration of Ca2+ influx” value (DGGCs [3]; ipsilateral DGGCs) was 8.51 ± 0.20 s. The “peak amplitude of Ca2+ influx” value (DGGCs [3]; ipsilateral TBI DGGCs) was 4.31±0.58 ΔF/F.

For `Cc1cc(N2CCCCC2)nc2ccccc12` [ML204, 4-Methyl-2-(1-piperidinyl)quinolone], the “effect on TRPC4/5 channels” value (TRPC4/5 channels) is listed as “selectively inhibit”, the “blockage of other TRPC channels” value (other TRPC channels) is listed as “no appreciable blockage” and the “maximum calcium-green 1 emission on muscarinic stimulation” value (DGGCs [2]; M084 and ML204 together, 10 μm) is listed as 1.61±0.21 fold.

In the case of `C1CCc2nnnn2CC1` [PTZ, pentylenetetrazol], the “mice acquiring myoclonic jerks” value (seizure susceptibility [4]) is reported as 100%, the “mice with forelimb clonus seizures” value (seizure susceptibility [4]) is reported as 86% and the “latency to myoclonic jerks” value (seizure susceptibility [5]; PTZ 35 mg/kg s.c. daily from 1 day post-TBI, TBI) is reported as 4.4 ± 0.6 days. The “latency to myoclonic jerks” value (seizure susceptibility [5]; PTZ 35 mg/kg s.c. daily from 1 day post-procedure, sham) was 9.5 ± 0.6 days, the “latency to forelimb clonus” value (seizure susceptibility [5]; [7]) was 5.6 ± 0.7 days and the “latency to tonic-clonic seizure” value (seizure susceptibility [5]; [7]) was 7.9 ± 0.7 days. The “latency to forelimb clonus” value (seizure susceptibility [5]; [8]) was 11.3 ± 0.7 days, the “latency to tonic-clonic seizure” value (seizure susceptibility [5]; [8]) was 12.5 ± 0.8 days and the “latency to forelimb clonus” value (seizure susceptibility [5]; [9]) was 4.3 ± 0.8 days. The “latency to myoclonic jerks” value (seizure susceptibility [5]; [9]) was 3.6 ± 0.7 days, the “latency to tonic-clonic seizure” value (seizure susceptibility [5]; [9]) was 5.6 ± 1.2 days and the “latency to forelimb clonus” value (seizure susceptibility [5]; [10]) was 12.0 ± 0.6 days. The “latency to myoclonic jerks” value (seizure susceptibility [5]; [10]) was 9.8 ± 0.4 days, the “latency to tonic-clonic seizure” value (seizure susceptibility [5]; [10]) was 13.1 ± 0.6 days and the “mice with lethal seizures on second tonic-clonic occurrence” value (seizure susceptibility [5]; PTZ kindling from 1 day post-TBI, TBI group) was “five out of eight”.

For `Cn1c(=O)n(CCCO)c(=O)c2c1nc(Oc1cccc(OC(F)(F)F)c1)n2Cc1ccc(Cl)cc1` [Pico145], the “potency on TRPC1/4/5 channels” value (TRPC1/4/5 channels) is given as “picomolar potency”.

With `CCCCCCCCCCCCCCCCCCOCC(COP(=O)([O-])OCC[N+](C)(C)C)OC` (stereo not drawn) [edelfosine] the “maximum dye emission over that before agonist” value (DGGCs [2]; slices preincubated with edelfosine 10 μm, then 77-LH-28-1) was 1.15±0.08 fold.

For `C1CCC[C@H]2CCCN3CC[C@@H](CCCCCC[C@@H]4CCCN5CC[C@@H](CC1)O[C@@H]45)O[C@@H]23` [xestospongin C], the “action potential firing frequency on mAChR stimulation” value (DGGCs [1]; [11]) was “increased action potential firing frequency”, the “M1R-mediated enhancement of IM” value (DGGCs [1]; xestospongin C 10 μm in the pipette) was 1.67±0.14 fold and the “rises in [Ca2+]i on mAChR stimulation” value (DGGCs [2]; [11]) was “substantial rises”.
